# Measured values reported in ChEMBL document CHEMBL3822434 (Bioorg Med Chem, 2016).
# Assays:
# [1] = Intrinsic clearance in human liver microsomes at 1 uM after 30 mins in presence of NADPH by LC-MS/MS analysis; format: ADME; conditions: read-out: CLH
# [2] = Solubility in fasted state simulated intestinal fluid irradiated ultrasonically for 10 mins followed by incubation for 24 hrs by HPLC-UV analysis; format: ADME
# [3] = Solubility in 50 mM phosphate buffer at pH 6.5 irradiated ultrasonically for 10 mins followed by incubation for 24 hrs by HPLC-UV analysis; format: physicochemical
# [4] = biological target: T1, Mitogen-activated protein kinase kinase kinase 7 (Homo sapiens, UniProt O43318); experiment: Inhibition of recombinant TAK1 (unknown origin)
# T1 sequence (O43318 whole entry): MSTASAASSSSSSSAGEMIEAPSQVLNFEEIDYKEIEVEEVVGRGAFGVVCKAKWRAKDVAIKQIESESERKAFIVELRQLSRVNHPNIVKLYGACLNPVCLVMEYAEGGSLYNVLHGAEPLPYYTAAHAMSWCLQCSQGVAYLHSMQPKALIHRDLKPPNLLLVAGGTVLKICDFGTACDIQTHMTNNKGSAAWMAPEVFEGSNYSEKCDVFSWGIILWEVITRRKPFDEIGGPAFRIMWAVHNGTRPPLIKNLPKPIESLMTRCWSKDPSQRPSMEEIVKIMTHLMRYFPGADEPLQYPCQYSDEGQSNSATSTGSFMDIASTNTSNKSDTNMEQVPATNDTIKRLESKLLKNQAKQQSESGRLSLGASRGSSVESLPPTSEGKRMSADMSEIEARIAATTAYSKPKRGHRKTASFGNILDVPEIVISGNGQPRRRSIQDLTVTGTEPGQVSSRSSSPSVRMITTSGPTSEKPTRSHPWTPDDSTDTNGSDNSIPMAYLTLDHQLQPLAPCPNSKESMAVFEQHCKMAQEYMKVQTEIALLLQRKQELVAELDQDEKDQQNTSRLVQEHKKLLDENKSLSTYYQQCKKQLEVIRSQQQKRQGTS
# [5] = Apparent permeability in human Caco2 cells; format: ADME, cell-based; conditions: Caco-2
# [6] = biological target: T1, Mitogen-activated protein kinase kinase kinase 7; experiment: Inhibition of human recombinant TAK1 fused with TAB1 using MKK6 as substrate in presence of gamma-[33P]ATP
# [7] = biological target: T1, Mitogen-activated protein kinase kinase kinase 7; experiment: Inhibition of recombinant FLAG-tagged TAK1 kinase domain (unknown origin) expressed in baculovirus expression system coexpressing TAB using biotin-labeled MKK6kd substrate incubated for 1 hr by AlphaScreen assay
# [8] = biological target: T1, Mitogen-activated protein kinase kinase kinase 7; experiment: Inhibition of TAK1 (unknown origin)
# Liver cytosol [9] = experiment: Drug level in human liver cytosol treated with N-(2-Methoxy-4-((3-(4-methylpiperazin-1-yl)propyl)carbamoyl)phenyl)thieno[3,2-d]pyrimidine-7-carboxamide after 30 mins in presence of NADPH by LC-MS/MS analysis; format: ADME, tissue-based; conditions: 0.5 h
# [10] = Drug level in mouse liver cytosol treated with N-(2-Methoxy-4-((3-(4-methylpiperazin-1-yl)propyl)carbamoyl)phenyl)thieno[3,2-d]pyrimidine-7-carboxamide after 30 mins in presence of NADPH by LC-MS/MS analysis; format: ADME, tissue-based; conditions: 0.5 h
# Liver cytosol [11] = experiment: Drug metabolism in human liver cytosol at 1 uM assessed as N-(2-Methoxy-4-((3-(4-methylpiperazin-1-yl)propyl)carbamoyl)phenyl)-4-oxo-3,4-dihydrothieno[3,2-d]pyrimidine-7-carboxamide formation after 30 mins in presence of NADPH by LC-MS/MS analysis; format: ADME; conditions: 0.5 h
# [12] = Intrinsic clearance in mouse liver microsomes at 1 uM after 30 mins in presence of NADPH by LC-MS/MS analysis; format: ADME; conditions: read-out: CLH
# [13] = Drug metabolism in mouse liver cytosol at 1 uM assessed as N-(2-Methoxy-4-((3-(4-methylpiperazin-1-yl)propyl)carbamoyl)phenyl)-4-oxo-3,4-dihydrothieno[3,2-d]pyrimidine-7-carboxamide formation after 30 mins in presence of NADPH by LC-MS/MS analysis; format: ADME; conditions: 0.5 h
microsomal CLint at 1 µM [1] [µL/min/mg],solubility at 24 h [2] [µg/mL],solubility at 24 h [3] [µg/mL],SMILES,further results
11,351,353,COc1cc(N2CCN(C)CC2)ccc1NC(=O)c1csc2cncnc12,–
26,312,293,COc1cc(C(=O)N2CCN(C)CC2)ccc1NC(=O)c1csc2cncnc12,–
21,420,377,COc1cc(C(=O)NCCCN2CCN(C)CC2)ccc1NC(=O)c1csc2cncnc12,Drug metabolism (Liver cytosol [11]): metabolite_detected; microsomal CLint at 1 µM [12]: 80 µL/min/mg; Drug metabolism [13]: metabolite_detected

# Continued, compound first:
SMILES,microsomal CLint at 1 µM [1] [µL/min/mg],solubility at 24 h [2] [µg/mL],solubility at 24 h [3] [µg/mL],further results
Cc1cc(NC(=O)Nc2cc(C(C)(C)C)nn2-c2cccc(C#N)c2)ccc1Oc1ccncc1,–,–,–,IC50 [4]: 156 nM
CC(C)Oc1c(NC(=O)c2csc3c(=O)[nH]cnc23)cccc1C(=O)N1CCN(C)CC1,–,–,–,Papp [5]: < 1 ×10⁻⁶ cm/s
C[C@H]1OC2C3=C(C(=O)[C@@H]4O[C@@H]4[C@H]3O)C1[C@@H]1[C@@H](C)OC=C3[C@H](O)[C@H]4O[C@H]4C(=O)[C@@]321 (stereo partly specified),–,–,–,IC50 [6]: 20000 nM
COc1cc2ncccc2cc1NC(=O)c1csc2cncnc12,–,< 3,< 3,–
CCc1cc(Nc2ncc(F)c(-c3cnc4cccnn34)n2)cc(OCCN2CCC(O)CC2)c1,–,–,–,IC50 [7]: 8 nM
COCCN1CCN(Cc2ccc(-c3cc(NC(N)=O)c(C(N)=O)s3)cc2)CC1,–,–,–,IC50 [8]: 50 nM
COc1cc(C(=O)NCCCN2CCN(C)CC2)ccc1NC(=O)c1csc2c(=O)[nH]cnc12,–,–,–,Drug metabolism (Liver cytosol [9]): metabolite_detected; Drug metabolism [10]: metabolite_detected
